From patent publication US11806402B2, “Sulfoalkyl ether cyclodextrin compositions” (CyDex Pharmaceuticals, Inc., priority 2008, dated 2023)

Test: Assay and impurity analysis (HPLC) of heat-stressed SBE6.6-β-CD/glucocorticosteroid (budesonide) formulation
Format: physicochemical
Settings: glucocorticosteroid standard, no SBE6.6-β-CD lot
Description: Comparative evaluation of the stability of various lots of SBE6.6-β-CD that underwent a single or a double treatment with activated carbon (according to Examples 27 and 24, respectively) were formulated with a glucocorticosteroid (budesonide) and an excipient (water), and were examined by HPLC. The general procedure is provided below.
SBE6.6-β-CD solutions (7.5% w/w, formulated with SBE6.6-β-CD Lot Nos. 17CX01.HQ00025, 17CX01.HQ00029 and 17CX01.HQ00041), were prepared by dissolving about 7.5 grams of SBE6.6-β-CD (corrected for water content) in 100 mL of water. A glucocorticosteroid was weighed in amounts in excess of the anticipated solubilities directly into TEFLON®-lined screw-capped containers. Approximately 275 μg/mL of the glucocorticoid steroid was vigorously stirred for 2 hours in an amber glass container. At the end of the agitation time, the glucocorticosteroid solution was filtered using a 0.24 μm syringe filter.
Control solution samples were removed before autoclaving. Aliquots of the solutions were autoclaved for four 20 minute cycles at 121° C. The samples were then analyzed by HPLC to determine assay content and the level of impurities formed during the heating cycles. Solution samples of SBE6.6-β-CD were prepared and analyzed on a PERKIN ELMER Lambda 35 UV/Vis spectrophotometer, scanning from 190 nm to 400 nm at a speed of 240 nm/min and a slit width of 1.0 nm to determine the UV content.

Assay GS Total: 99.385 Area % | Assay R-GS: 51.888 Area % | Assay S-GS: 47.497 Area % | Assay Δ: 0% | Impurities A: 0.001 Area % | Impurities B (S-11-keto-derivative): 0.127 Area %
SMILES: CCCC1O[C@@H]2C[C@H]3[C@@H]4CCC5=CC(=O)C=C[C@]5(C)[C@H]4[C@@H](O)C[C@]3(C)[C@]2(C(=O)CO)O1 (stereo partly drawn) [Glucocorticosteroid (“GS”) Std., budesonide]
